These results are taken from patent US20070275990A1, “Heterocyclic Spiro Compound” (ONO PHARMACEUTICAL CO., LTD., priority 2003, published 2007).

Test [1] addresses T1, MBR (Rattus norvegicus, UniProt P16257).
T1 construct: from tissue; host or cells: whole brain without cerebellum of male Wistar rats, crude membrane preparation
The test can be described thus: Receptor binding experiment ([3H]PK11195 competition binding). The note with it: rat brain membrane preparation, [3H]PK11195 0.5 or 1 nmol/L; Ki calculated by Cheng and Prusoff formula from KD value and IC50. The method, then: The affinity of the compounds in the present invention to MBR was determined using rat brain membrane preparation. In addition, the measurement in the present invention was improved the accuracy of measurement and the sensitivity of measurement for evaluating the compounds in the present invention as follows. After male Wister rats were decapitated to extirpate the whole brain and cerebellums were removed. They were homogenized in ice-cold 50 mmol/L Tris-HCL buffer solution (pH 7.4), centrifuged and the obtained pellets were washed. The pellets resuspended and adjusted to about 1 mg/mL were used as rat brain membrane preparations for binding assay. The binding assay were experimented using [^3H]PK11195 as a MBR selective ligand. […]
To determine the amount of total binding in saturation binding experiment, membrane preparations, various concentrations of [^3H]PK11195, final concentration: 0.5 vol % dimethylsulfoxide (DMSO) and 50 mmol/L Tris-HCL buffer solution (pH 7.4) were mixed (total volume 200 μL) and were incubated for 1 hour at room temperature. […] The filter was dried and then the radioactivity on the filter was measured by liquid scintillation counter. The data obtained by the binding experiments were Scatchard analyzed using analysis software, KELL (Ver. 6, BIOSOFT) and the dissociation constant (KD value) was determined. […]

The test system of test [2] is male Wistar rats. The test can be described thus: Evaluation of anti-stress effects (defecation under psychological stress). In kind it is in vivo, rat. The note with it: 10 mg/kg orally 30 minutes before stressor load; counted 1 hour later; media treated group average 8.7 feces. The method, then: Psychological stress was loaded to male Wistar rats (Brain research, 641, 21-28, 1994). Water was stored up to the depth of about 10 cm in a container where the platform was set at the center. A stressor began to load to rats 30 minutes after the vehicle or the compound in the present invention (the compound of Example 15(39)) were orally administered by dosage of 10 mg/kg. The number of defecation was counted 1 hour later (10 per each group). Rats without administration and load of stressor rarely defecated for 1 hour. In contrast, remarkable defecation was admitted in media treated group (average 8.7 feces) loaded by stressor. […] The results clarified that the compounds in the present invention had anti-stress effects.

Molecules are shown by their SMILES. pKi: −log10 of the molar value.

Regarding `O=C1N(c2ccccc2)CCC12CCCN(S(=O)(=O)c1ccccc1)C2` (stereo not drawn) [Example 7, 2-phenyl-7-(phenylsulfonyl)-2,7-diazaspiro[4.5]decan-1-one], the pKi in test [1] is 6.64.

With `COc1ccc(S(=O)(=O)N2CCCC3(CCN(c4ccc(Cl)cc4)C3=O)C2)cc1` (stereo not drawn) [Example 15(39), 2-(4-chlorophenyl)-7-[(4-methoxyphenyl)sulfonyl]-2,7-diazaspiro[4.5]decan-1-one], in test [1], the pKi was 7.40. Also, the “number of defecation (average)” value in test [2] turned out to be 5.8 feces.
